The values that follow come from article PMC8804135 (Neurotherapeutics, 2021).

Where only a bound is given, the exact number is not on record here.

The conditions of data set [1]: cited from earlier work. The source says:
The use of natural galanin in clinical applications faces two serious limitations: lack of receptor specificity and in vivo susceptibility to rapid peptidase-mediated breakdown. […] Recently, a selective GAL2R agonist based on the sequence of spexin, a newly discovered natural peptide with affinity for GAL2R and ...

In data set [2] the target is T1, GAL2R (Homo sapiens, UniProt O43603).
T1 sequence (O43603 1-387): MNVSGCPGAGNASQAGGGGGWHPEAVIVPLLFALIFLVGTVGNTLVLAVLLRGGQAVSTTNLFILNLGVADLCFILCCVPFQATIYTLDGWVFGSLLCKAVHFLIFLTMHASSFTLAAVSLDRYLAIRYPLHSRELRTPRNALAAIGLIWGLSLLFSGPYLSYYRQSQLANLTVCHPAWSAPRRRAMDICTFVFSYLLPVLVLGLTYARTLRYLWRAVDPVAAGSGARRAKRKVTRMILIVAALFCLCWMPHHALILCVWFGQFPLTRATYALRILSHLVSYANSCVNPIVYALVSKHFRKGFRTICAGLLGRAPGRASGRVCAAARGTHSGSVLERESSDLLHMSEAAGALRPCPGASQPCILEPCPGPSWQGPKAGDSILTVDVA
Details: expressed in transfected cells; host or cells: HEK293 Gqi cells, transient; plasmids from Young Seong (Korea University). Conditions: cited from earlier work. The source says:
Since the discovery of the three GALRs, major effort has been directed at developing receptor-selective agonists and antagonists. These were based on substitution of certain amino acids in the galanin peptide sequence. While receptor selectivity was achieved to some degree, GAL(2–11) turned out to be a very selective non-GAL1R agonist.

Data set [3] in a line: In vitro stability in rat serum. The data set is classed as in vitro ADME. Conditions: 5% rat serum, 20 mM phosphate pH 7.4, 37 °C, 10 µM, HPLC A280, n = 2–3. As for the experimental part:
At various time points (0, 30, 90, 270, and 1410 min), 180 µl of samples were quenched with 10 µl 10% TFA and 20 µl 100% ACN. Samples were centrifuged and kept on ice. The amount of full-length peptides in the serum was analyzed using a C12 column (C12 RP 250 × 4.60 mm column, Phenomenex) on a JASCO HPLC system and applying a gradient of 10–90% ACN in 0.1% TFA for 45 min. Peptides were detected at 280 nm. A280 areas in chromatograms of the corresponding GAL-(1–15) and M89b full-length peptide peaks were used to determine the amount of peptide left after incubation with 5% rat serum at the different time points. Peptide peaks were determined using JASCO-Borwin Chromatography software (v1.50).

Data set [4] can be described thus: In vitro stability in brain plasma. The data set is classed as in vitro ADME, rat. Conditions: 1% Sprague dawley rat brain plasma, 200 mM phosphate pH 7.4, 37 °C, 10 µM; after 1 h; HPLC A280; n=3. As for the experimental part: The method to study the stability of peptides in brain plasma is described in the Supplementary material. […]
receptor-2-selective agonist reduces acute food intake
Anneke Kuipers1, Márta Balasko2, Erika Pétervári2, Andreas Koller3,4, Susanne M.
Brunner3,4, Gert N. Moll1,5, Barbara Kofler 3*
In vitro stability in brain plasma
Sprague dawley rat brain lyophilized powder was purchased from MyBioSource (San Diego, USA). One gram brain powder was reconstituted in 10 ml PBS, 0.5 ml 2 M Tris (pH=8), 100 µl Triton X -100 and 10 mg SDS. The solution was centrifuged and the supernatant was collected, aliquoted and stored at -20 °C until usage. To assess the stability, 10 µM GAL-(1-15) and 10 µM M89b were incubated in 1% brain plasma buffered with 200 mM phosphate buffer (pH 7.4) at 37°C for up to 6 hours. At various time points […]
20 µl 100% ACN. Samples were centrifuged and kept on ice. Full-length peptides were quantified by using a C12 column (C12 RP 250 x 4.60 mm column, Phenomenex) on a JASCO HPLC system and applying a gradient of 20 -90% ACN in 0.1% TFA for 30 minutes.
Peptides were detected at 280 nm. A280 areas in chromatograms of the corresponding GAL-(1-15) and M89b full-length peptide peaks were used to determine the amount of peptide left after incubation with cerebrospinal fluid at the different time points. Peptide peaks were determined using JASCO-Borwin Chromatography software (v1.50).

The nature of data set [5]: In vitro stability in cerebrospinal fluid. Type of data set: in vitro ADME. The note with it: cerebrospinal or other body fluid; pooled male Wistar Hannover rat cerebrospinal fluid, 37 °C; 4 µl 0.50 mM peptide + 10 µl CSF; after 4 h; HPLC A280; n = 2–3; read-out: Peptide retrieved in CSF. As for the experimental part: Pooled male Wistar Hannover rat cerebrospinal fluid was purchased from BioIVT (West Sussex, UK). Stability of peptides was analyzed by incubation of 4 µl 0.50 mM GAL-(1–15) with 10 µl cerebrospinal fluid or 6 µl 0.33 mM M89b with 10 µl cerebrospinal fluid at 37 °C [43]. At various time points (0, 30, 60, 240, and 480 min), the reactions were quenched with 2 µl 50% TFA and 20 µl 100% ACN. Water was added to reach a final volume of 220 µl. Samples were centrifuged and kept on ice. Full-length peptides were quantified by using a C12 column (C12 RP 250 × 4.60 mm column, Phenomenex) on a JASCO HPLC system and applying a gradient of 20–90% ACN in 0.1% TFA for 30 min. Peptides were detected at 280 nm. A280 areas in chromatograms of the corresponding GAL-(1–15) and M89b full-length peptide peaks were used to determine the amount of peptide left after incubation with cerebrospinal fluid at the different time points. Peptide peaks were determined using JASCO-Borwin Chromatography software (v1.50).

Data set [6] relates to non-fasted male Wistar rats. Briefly: Food intake and body weight after intranasal application of peptides. Type of data set: in vivo, rat. On the procedure:
For intranasal delivery, 1 mg of M89b was first dissolved in 566 µl 2,2,2-trifluorethanol, 566 µl 10% (2-hydroxypropyl)-ß-cyclodextrin (HBC), and 1 µl acetic acid and incubated at 60 °C for 20 min. Another 566 µl of 10% HBC were added. The peptide was then dried in a speed-vac, and the dried pellet was dissolved in 1132 µl water by vortexing and incubation at 60 °C. M871 and GALP were purchased from GL Biochem. M871 was dissolved in saline containing 10% HBC. GALP was dissolved in saline containing 5% α-cyclodextrin.
In vivo experiments involving intranasal treatment of rats and measurement of feeding behavior were performed at the Institute for Translational Medicine, University of Pécs, Pécs, Hungary. Experiments were approved by the National Ethical Council for Animal Research (permit number, BA 02/2000–11/2018). They were also in accord with the directives of the European Communities Council on the protection of animals used for scientific purposes (86/609/EEC, Directive 2010/63/EU of the European Parliament and of the Council).
Spontaneous food intake was measured in non-fasted male Wistar rats (3 months old) for 24 h following intranasal application of peptide solutions by an automated FeedScale System (Columbus, OH). Each group of animals (6–9 rats/group) was habituated to the individual chambers of the FeedScale System until daily food intake and changes in the body weight of the animals had normalized. This habituation, which lasted for a minimum of 2 weeks, allowed adaptation to the environment, to the powdered chow and to the feeder. This powdered form of chow prevented food hoarding. A special digital scale under the cages provided precise automated measurement and continuous recording of the amount of consumed food. During the measurement of the cumulative 24 h food intake, data were collected every 30 min.
Intranasal applications were performed at 06:00 PM at the onset of the active nighttime period of rats. First, the body weight of animals was recorded, and then they were intraperitoneally anesthetized with ketamine (52 mg/kg) and xylazine (9 mg/kg). For the intranasal application of peptides, rats were placed on their backs, and 25–30 µl of peptide solution was injected gently per nostril (total volume of 50–60 μl per rat depending on the administered peptides) using a 10-μl pipette. The following solutions were applied: M89b (25 nmol in 60 µl saline containing 10% HBC); GALP (17.5 nmol in 50 µl saline containing 5% α-cyclodextrin); M871 (219 nmol in 60 µl 10% HBC); and M89b + M871 (25 nmol M89b + 219 nmol M871 in 60 µl 10% HBC). […] At 24 h post-treatment, the body weight of the animals was measured.
Statistical analysis was performed with SPSS 11.0. […] Body weight data were analyzed by applying a one-way ANOVA with Tukey’s post hoc test. […]

For data set [7] the following is noted: intranasal administration with α-cyclodextrins; cited from earlier work. The source says:
For delivery of therapeutic peptides and proteins to the brain, the blood–brain barrier (BBB) is a major impediment. Intranasal delivery might provide a non-invasive means to bypass the BBB. Advantages of applying peptides via the nasal route, provided they do indeed reach the brain, include minimizing exposure to peripheral organs and tissues, thus reducing systemic side effects. […] Intranasal delivery of peptides may provide the ability to target specific re ...

In the case of `CC(C)C[C@H](NC(=O)CNC(=O)[C@H](CC(N)=O)NC(=O)[C@H](CCCCN)NC(=O)[C@H](CC(=O)O)NC(=O)[C@H](CO)NC(=O)[C@H](Cc1ccccc1)NC(=O)[C@H](CO)NC(=O)[C@H](CCCNC(=N)N)NC(=O)[C@H](Cc1cnc[nH]1)NC(=O)[C@H](CC(N)=O)NC(=O)CNC(=O)[C@@H](NC(=O)[C@H](C)NC(=O)[C@H](Cc1cnc[nH]1)NC(=O)[C@@H]1CCCN1C(=O)CNC(=O)[C@H](CC(C)C)NC(=O)[C@H](CC(C)C)NC(=O)[C@H](Cc1ccc(O)cc1)NC(=O)CNC(=O)[C@H](C)NC(=O)[C@H](CO)NC(=O)[C@H](CC(N)=O)NC(=O)[C@H](CC(C)C)NC(=O)[C@@H](NC(=O)[C@H](Cc1c[nH]c2ccccc12)NC(=O)CN)[C@@H](C)O)C(C)C)C(=O)N[C@H](C(=O)N[C@@H](CO)C(=O)O)[C@@H](C)O` [galanin], the “In vivo half-life in plasma” value in data set [1] was “around 4 min”.

With Ala5-galanin(2–11), the “Preference for GAL2R compared to both GAL1R and GAL3R” value in data set [2] is “more than 375 fold”.

On to `CC(C)C[C@H](NC(=O)[C@H](CC(C)C)NC(=O)[C@H](Cc1ccc(O)cc1)NC(=O)CNC(=O)[C@H](C)NC(=O)[C@H](CO)NC(=O)[C@H](CC(N)=O)NC(=O)[C@H](CC(C)C)NC(=O)[C@@H](NC(=O)[C@H](Cc1c[nH]c2ccccc12)NC(=O)CN)[C@@H](C)O)C(=O)NCC(=O)N1CCC[C@H]1C(=O)N[C@@H](Cc1c[nH]cn1)C(=O)N[C@@H](C)C(N)=O` [GAL-(1–15), reference compound], for which, in data set [3] (after 30 min, read-out: Peptide degraded in rat serum), the metabolised at 0.5 h, 10 µM is 80%. In data set [3] (after 90 min, read-out: Peptide detectable in rat serum), the remaining at 1.5 h, 10 µM was under 2%. Further, the “Degradation in brain plasma” value in data set [4] is listed as “the whole amount of GAL-(1–15) was degraded”. The remaining at 4 h, 143 µM in data set [5] was under 4%.

Take “galanin-like peptide (APAHRGRGGWTLNSAGYLLGPVLHLPQMGDQDGKRETALEILDLWKAIDGLPYSHPPQPS; Galanin-like peptide; UniProt Q9UBC7 25-84, looked up) [GALP, reference compound]”: the “Reduction of 24-h food intake” value in data set [6] (intranasal 17.5 nmol in 50 µl saline with 5% α-cyclodextrin, vs vehicle, p = 0.038) is 19%. Moreover, the “24-h body weight change” value in data set [6] (intranasal 17.5 nmol in saline with 5% α-cyclodextrin, p = 0.0247 as printed) is given as “trend of reduction, but this change did not reach statistical significance”. Further, in data set [7], the “Increase of uptake in all brain regions compared to GALP alone” value is listed as “two- to threefold”.
